ChEMBL document CHEMBL1201862, “PubChem BioAssay data set” (2004)
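Five concentrations, 48 hours, 96-well plates. GI50 marks 50% less growth.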 Calls of active or inactive are those of the source. Rule as the data show it: active = GI50 up to about 1.1 µM and inactive = higher.

How the values were obtained:
Assay in all cases: NCI anticancer screen, dose series, 48 h
786-0 = test system: 786-0
A498 = test system: A498
A549 = test system: A549
ACHN = test system: ACHN
BT-549 = test system: BT-549
CAKI-1 = test system: CAKI-1
CCRF-CEM = test system: CCRF-CEM
COLO 205 = test system: COLO 205
DU-145 = test system: DU-145
HCT-116 = test system: HCT-116
HCT-15 = test system: HCT-15
HL-60 = test system: HL-60
HOP-62 = test system: HOP-62
HOP-92 = test system: HOP-92
HT-29 = test system: HT-29
IGROV-1 = test system: IGROV-1
K562 = test system: K562
KM12 = test system: KM12
LOX IMVI = test system: LOX IMVI
M14 = test system: M14
MCF7 = test system: MCF7
MDA-MB-231 = test system: MDA-MB-231
MDA-MB-435 = test system: MDA-MB-435
MDA-N = test system: MDA-N
MOLT-4 = test system: MOLT-4
Malme-3M = test system: Malme-3M
NCI-H226 = test system: NCI-H226
NCI-H23 = test system: NCI-H23
NCI-H460 = test system: NCI-H460
NCI-H522 = test system: NCI-H522
NCI/ADR-RES = test system: NCI/ADR-RES
OVCAR-3 = test system: OVCAR-3
OVCAR-4 = test system: OVCAR-4
OVCAR-5 = test system: OVCAR-5
OVCAR-8 = test system: OVCAR-8
PC-3 = test system: PC-3
RPMI-8226 = test system: RPMI-8226
RXF 393 = test system: RXF 393
SF-268 = test system: SF-268
SF-295 = test system: SF-295
SF-539 = test system: SF-539
SK-MEL-28 = test system: SK-MEL-28
SK-MEL-2 = test system: SK-MEL-2
SK-MEL-5 = test system: SK-MEL-5
SK-OV-3 = test system: SK-OV-3
SN12C = test system: SN12C
SNB-19 = test system: SNB-19
SR = test system: SR
SW-620 = test system: SW-620
T47D = test system: T47D
TK-10 = test system: TK-10
U-251 = test system: U-251
UACC-257 = test system: UACC-257
UACC-62 = test system: UACC-62
UO-31 = test system: UO-31
EKVX = test system: EKVX
HCC 2998 = test system: HCC 2998
Hs-578T = test system: Hs-578T
SNB-75 = test system: SNB-75

SMILES: OC1c2ccccc2C(O)C2OC12 (configuration not stated)
- GI50 (786-0): > 100 µM (inactive)
- GI50 (A498): > 100 µM (inactive)
- GI50 (A549): > 100 µM (inactive)
- GI50 (ACHN): > 100 µM (inactive)
- GI50 (BT-549): > 100 µM (inactive)
- GI50 (CAKI-1): > 100 µM (inactive)
- GI50 (CCRF-CEM): > 100 µM (inactive)
- GI50 (COLO 205): > 100 µM (inactive)
- GI50 (DU-145): > 100 µM (inactive)
- GI50 (HCT-116): > 100 µM (inactive)
- GI50 (HCT-15): > 100 µM
- GI50 (HL-60): > 100 µM (inactive)
- GI50 (HOP-62): > 100 µM (inactive)
- GI50 (HOP-92): > 100 µM (inactive)
- GI50 (HT-29): > 100 µM (inactive)
- GI50 (IGROV-1): > 100 µM (inactive)
- GI50 (K562): > 100 µM (inactive)
- GI50 (KM12): > 100 µM (inactive)
- GI50 (LOX IMVI): > 100 µM (inactive)
- GI50 (M14): > 100 µM (inactive)
- GI50 (MCF7): > 100 µM (inactive)
- GI50 (MDA-MB-231): > 100 µM (inactive)
- GI50 (MDA-MB-435): > 100 µM (inactive)
- GI50 (MDA-N): > 100 µM (inactive)
- GI50 (MOLT-4): > 100 µM (inactive)
- GI50 (Malme-3M): > 100 µM (inactive)
- GI50 (NCI-H226): 78.5 µM (inactive)
- GI50 (NCI-H23): > 100 µM (inactive)
- GI50 (NCI-H460): > 100 µM (inactive)
- GI50 (NCI-H522): > 100 µM (inactive)
- GI50 (NCI/ADR-RES): > 100 µM (inactive)
- GI50 (OVCAR-3): > 100 µM (inactive)
- GI50 (OVCAR-4): > 100 µM (inactive)
- GI50 (OVCAR-5): > 100 µM (inactive)
- GI50 (OVCAR-8): > 100 µM (inactive)
- GI50 (PC-3): > 100 µM (inactive)
- GI50 (RPMI-8226): > 100 µM (inactive)
- GI50 (RXF 393): > 100 µM (inactive)
- GI50 (SF-268): > 100 µM (inactive)
- GI50 (SF-295): > 100 µM (inactive)
- GI50 (SF-539): > 100 µM (inactive)
- GI50 (SK-MEL-28): > 100 µM (inactive)
- GI50 (SK-MEL-2): > 100 µM (inactive)
- GI50 (SK-MEL-5): > 100 µM (inactive)
- GI50 (SK-OV-3): > 100 µM (inactive)
- GI50 (SN12C): > 100 µM (inactive)
- GI50 (SNB-19): > 100 µM (inactive)
- GI50 (SR): > 100 µM (inactive)
- GI50 (SW-620): > 100 µM (inactive)
- GI50 (T47D): > 100 µM (inactive)
- GI50 (TK-10): > 100 µM (inactive)
- GI50 (U-251): > 100 µM (inactive)
- GI50 (UACC-257): > 100 µM (inactive)
- GI50 (UACC-62): > 100 µM (inactive)
- GI50 (UO-31): > 100 µM (inactive)

SMILES: COc1ccc2[nH]cc(C(=O)C(=O)NC34CC5CC(CC(C5)C3)C4)c2c1
- GI50 (786-0): 8.09 µM (inactive)
- GI50 (A498): 43.8 µM (inactive)
- GI50 (A549): 26.2 µM (inactive)
- GI50 (ACHN): 29.4 µM (inactive)
- GI50 (BT-549): 43.3 µM (inactive)
- GI50 (CAKI-1): > 45.4 µM (inactive)
- GI50 (CCRF-CEM): 9.48 µM (inactive)
- GI50 (COLO 205): 6.9 µM (inactive)
- GI50 (DU-145): 39.4 µM (inactive)
- GI50 (EKVX): > 50.1 µM (inactive)
- GI50 (HCC 2998): 28.1 µM (inactive)
- GI50 (HCT-116): 20.6 µM (inactive)
- GI50 (HCT-15): 9.16 µM
- GI50 (HOP-62): 16.5 µM (inactive)
- GI50 (HOP-92): 29.5 µM (inactive)
- GI50 (HT-29): 2.08 µM (inactive)
- GI50 (Hs-578T): 21.4 µM (inactive)
- GI50 (IGROV-1): 58.3 µM (inactive)
- GI50 (K562): 4.44 µM (inactive)
- GI50 (KM12): > 26.9 µM (inactive)
- GI50 (LOX IMVI): 7.21 µM (inactive)
- GI50 (M14): 13.9 µM (inactive)
- GI50 (MCF7): 10.1 µM (inactive)
- GI50 (MDA-MB-231): 40.1 µM (inactive)
- GI50 (MDA-MB-435): 41.3 µM (inactive)
- GI50 (MDA-N): 84.7 µM (inactive)
- GI50 (MOLT-4): 2.66 µM (inactive)
- GI50 (Malme-3M): 46.9 µM (inactive)
- GI50 (NCI-H226): 22.9 µM (inactive)
- GI50 (NCI-H23): > 72.6 µM (inactive)
- GI50 (NCI-H460): 7.31 µM (inactive)
- GI50 (NCI-H522): 36.7 µM (inactive)
- GI50 (NCI/ADR-RES): 55.2 µM (inactive)
- GI50 (OVCAR-3): 8.97 µM (inactive)
- GI50 (OVCAR-4): 29.6 µM (inactive)
- GI50 (OVCAR-5): 35.2 µM (inactive)
- GI50 (OVCAR-8): 35.6 µM (inactive)
- GI50 (PC-3): 38.3 µM (inactive)
- GI50 (RPMI-8226): 4.69 µM (inactive)
- GI50 (RXF 393): 3.22 µM (inactive)
- GI50 (SF-268): > 61.1 µM (inactive)
- GI50 (SF-295): 6.9 µM (inactive)
- GI50 (SF-539): 14 µM (inactive)
- GI50 (SK-MEL-28): 15.4 µM (inactive)
- GI50 (SK-MEL-2): 57.8 µM (inactive)
- GI50 (SK-MEL-5): 32.2 µM (inactive)
- GI50 (SK-OV-3): 73.3 µM (inactive)
- GI50 (SN12C): 18.9 µM (inactive)
- GI50 (SNB-19): 53.5 µM (inactive)
- GI50 (SNB-75): 37.9 µM (inactive)
- GI50 (SW-620): 38.9 µM (inactive)
- GI50 (T47D): 54.1 µM (inactive)
- GI50 (TK-10): 48.8 µM (inactive)
- GI50 (U-251): 13.5 µM (inactive)
- GI50 (UACC-257): 67.5 µM (inactive)
- GI50 (UACC-62): 23.8 µM (inactive)
- GI50 (UO-31): > 100 µM (inactive)
